Experimental data from patent publication US20260138988A1, “Spiropyrrolidine Derived Antiviral Agents” (Enanta Pharmaceuticals, Inc., priority 2021, published 2026).
Like-named read-outs stand apart in the source and are kept apart here.

Molecular target: SARS-CoV-2 3CL-protease (Severe acute respiratory syndrome coronavirus 2, UniProt P0DTD1)
Assay: SARS-CoV-2 3C-Like (3CL) Protease Fluorescence Assay (FRET)
Format: biochemical
Conditions: test compounds 0-10 μM, duplicate
[1] = SARS-CoV-2 3CL-protease 10 nM, read-out: IC50

| Structure (SMILES) | IC50 [1] [nM] | IC50 (IC50, SARS-CoV-2 3CL-protease 10 nM) [nM] |
| --- | --- | --- |
| C[C@H](NC(=O)C(F)(F)c1ccc(F)cc1)C(=O)N(C)[C@@H](CC(C)(C)C)C(=O)N1C[C@]2(C[C@H]1C#N)C(=O)Nc1ccccc12 [Example 308] | < 100 |  |
| C[C@H](NC(=O)C12CC(C)(C1)C2)C(=O)N(C)[C@@H](CC(C)(C)C)C(=O)N1C[C@]2(C[C@H]1C#N)C(=O)Nc1ccccc12 [Example 309] | < 100 |  |
| C[C@H](NC(=O)C12CC3CC(CC(C3)C1)C2)C(=O)N(C)[C@@H](CC(C)(C)C)C(=O)N1C[C@]2(C[C@H]1C#N)C(=O)Nc1ccccc12 [Example 310] | < 100 |  |
| CC(C)(C)C[C@H](NC(=O)[C@H](CC1CC1)NC(=O)OC1CC1)C(=O)N1C[C@]2(C[C@H]1C#N)C(=O)Nc1ccccc12 [Example 311] | < 100 |  |
| CC(C)(C)C[C@H](NC(=O)[C@H](CC1CC1)NC(=O)c1cc(F)c(F)c(F)c1)C(=O)N1C[C@]2(C[C@H]1C#N)C(=O)Nc1ccccc12 [Example 312] | < 100 |  |
| CC(C)(C)C[C@H](NC(=O)[C@H](CC1CC1)NS(=O)(=O)c1ccc(F)cc1)C(=O)N1C[C@]2(C[C@H]1C#N)C(=O)Nc1ccccc12 [Example 313] | < 100 |  |
| CC(C)(C)C[C@H](NC(=O)[C@H](CC1CC1)NS(=O)(=O)c1cnn(-c2ccc(F)cc2)c1)C(=O)N1C[C@]2(C[C@H]1C#N)C(=O)Nc1ccccc12 [Example 314] | 100 to 1000 |  |
| CC(C)(C)C[C@H](NC(=O)[C@H](CC1CC1)NC(=O)c1cccc2cc(F)ccc12)C(=O)N1C[C@]2(C[C@H]1C#N)C(=O)Nc1ccccc12 [Example 315] | < 100 |  |
| CC(C)(C)C[C@H](NC(=O)[C@H](CC1CC1)NC1CCCCC1)C(=O)N1C[C@]2(C[C@H]1C#N)C(=O)Nc1ccccc12 [Example 316] | 100 to 1000 |  |
| CC(C)(C)C[C@H](NC(=O)[C@H](CC1CC1)NC(=O)C12CC(C)(C1)C2)C(=O)N1C[C@]2(C[C@H]1C#N)C(=O)Nc1ccccc12 [Example 317] | < 100 |  |
| CC(C)(C)C[C@H](NC(=O)[C@H](CC1CC1)NC(=O)C1CC2CCC1C2)C(=O)N1C[C@]2(C[C@H]1C#N)C(=O)Nc1ccccc12 (stereo partly shown) [Example 318] | < 100 |  |
| CC(C)(C)C[C@H](NC(=O)[C@H](CC1CC1)NC(=O)C12CC3CC(CC(C3)C1)C2)C(=O)N1C[C@]2(C[C@H]1C#N)C(=O)Nc1ccccc12 [Example 319] | < 100 |  |
| CC(C)(C)C[C@H](NC(=O)[C@H](CC1CC1)NC(=O)C1CCC1)C(=O)N1C[C@]2(C[C@H]1C#N)C(=O)Nc1ccccc12 [Example 320] | < 100 |  |
| CC(C)(C)C[C@H](NC(=O)[C@H](CC1CC1)NC(=O)C1CC2(CCC2)C1)C(=O)N1C[C@]2(C[C@H]1C#N)C(=O)Nc1ccccc12 [Example 321] | < 100 |  |
| CC(C)(C)C[C@H](NC(=O)[C@H](CC1CC1)NC(=O)C1CCC2(CC1)CC2)C(=O)N1C[C@]2(C[C@H]1C#N)C(=O)Nc1ccccc12 [Example 322] | < 100 |  |
| CC(C)(C)C[C@H](NC(=O)[C@H](CC1CC1)NC(=O)c1cnn(C2CC2)c1)C(=O)N1C[C@]2(C[C@H]1C#N)C(=O)Nc1ccccc12 [Example 323] | < 100 |  |
| CC(C)(C)C[C@H](NC(=O)[C@H](CC1CC1)NC(=O)c1cn(C2CC2)nn1)C(=O)N1C[C@]2(C[C@H]1C#N)C(=O)Nc1ccccc12 [Example 324] | < 100 |  |
| CC(C)(C)C[C@H](NC(=O)[C@H](CC1CC1)NC(=O)c1c[nH]cn1)C(=O)N1C[C@]2(C[C@H]1C#N)C(=O)Nc1ccccc12 [Example 325] | 100 to 1000 |  |
| CC(C)(C)C[C@H](NC(=O)[C@H](CC1CC1)NC(=O)c1ccc(F)c(F)c1)C(=O)N1C[C@]2(C[C@H]1C#N)C(=O)Nc1ccccc12 [Example 326] | < 100 |  |
| CC(C)(C)C[C@H](NC(=O)[C@H](CC1CC1)NC(=O)C1CCCCC1)C(=O)N1C[C@]2(C[C@H]1C#N)C(=O)Nc1ccccc12 [Example 327] | < 100 |  |
| CC(C)(C)C[C@H](NC(=O)[C@H](CC1CC1)NC(=O)OC1CC1)C(=O)N1C[C@]2(C[C@H]1C#N)C(=O)Nc1ccccc12 [Example 331] | 100 to 1000 |  |
| C[C@H](Nc1ccc(F)cc1)C(=O)N[C@@H](CC(C)(C)C)C(=O)N1C[C@]2(C[C@H]1C#N)C(=O)Nc1ccccc12 [Example 336] | 100 to 1000 |  |
| CC(C)[C@H](Nc1ccc(F)cc1)C(=O)N[C@@H](CC(C)(C)C)C(=O)N1C[C@]2(C[C@H]1C#N)C(=O)Nc1ccccc12 [Example 337] | 100 to 1000 |  |
| CC(C)(C)C[C@H](NC(=O)[C@@H](Nc1ccc(F)cc1)C1CC1)C(=O)N1C[C@]2(C[C@H]1C#N)C(=O)Nc1ccccc12 [Example 338] | < 100 |  |
| CC(C)(C)C[C@H](NC(=O)[C@H](Cc1ccccc1)Nc1ccc(F)cc1)C(=O)N1C[C@]2(C[C@H]1C#N)C(=O)Nc1ccccc12 [Example 339] | < 100 |  |
| CC(C)(C)C[C@H](NC(=O)[C@@H](Nc1ccccc1)C1CC1)C(=O)N1C[C@]2(C[C@H]1C#N)C(=O)Nc1ccccc12 [Example 340] | < 100 |  |
| CC(C)(C)C[C@H](NC(=O)[C@@H](Nc1ccc(F)cc1F)C1CC1)C(=O)N1C[C@]2(C[C@H]1C#N)C(=O)Nc1ccccc12 [Example 341] | < 100 |  |
| CC(C)(C)C[C@H](NC(=O)[C@@H](Nc1ccc2ccccc2c1)C1CC1)C(=O)N1C[C@]2(C[C@H]1C#N)C(=O)Nc1ccccc12 [Example 342] | < 100 |  |

| Structure (SMILES) | IC50 [1] [nM] | IC50 (IC50, SARS-CoV-2 3CL-protease 10 nM) [nM] |
| --- | --- | --- |
| CC(C)(C)C[C@H](NC(=O)[C@@H](Nc1cnc2ccccc2c1)C1CC1)C(=O)N1C[C@]2(C[C@H]1C#N)C(=O)Nc1ccccc12 [Example 343] | < 100 |  |
| CC(C)C(NC(=O)C(F)(F)F)C(=O)N1CC[C@H](c2ccccc2)[C@H]1C(=O)N1C[C@]2(C[C@H]1C#N)C(=O)Nc1ccccc12 (stereo partly shown) [Example 344] | < 100 |  |
| CC(C)CC(NC(=O)C(F)(F)F)C(=O)N1CC[C@H](c2ccccc2)[C@H]1C(=O)N1C[C@]2(C[C@H]1C#N)C(=O)Nc1ccccc12 (stereo partly shown) [Example 345] | < 100 |  |
| CC(C)CC(NC(=O)c1cnn(CC(F)(F)F)c1)C(=O)N1CC[C@H](c2ccccc2)[C@H]1C(=O)N1C[C@]2(C[C@H]1C#N)C(=O)Nc1ccccc12 (stereo partly shown) [Example 346] | < 100 |  |
| CN(C(=O)[C@H](CC1CC1)NC(=O)C(F)(F)C(F)(F)F)[C@@H](CC1CC1)C(=O)N1C[C@]2(C[C@H]1C#N)C(=O)Nc1ccccc12 [Example 347] | < 100 |  |
| C[C@H](NC(=O)C(F)(F)C(F)(F)F)C(=O)N(C)[C@@H](CC(C)(C)C)C(=O)N1C[C@]2(C[C@H]1C#N)C(=O)N(C)c1ccccc12 [Example 348] | < 100 |  |
| CC(C)OC(=O)OCN1C(=O)[C@]2(C[C@@H](C#N)N(C(=O)[C@H](CC3CC3)N(C)C(=O)[C@H](C)NC(=O)C(F)(F)C(F)(F)F)C2)c2ccccc21 [Example 350] | 100 to 1000 |  |
| C[C@H](NC(=O)C(F)(F)C(F)(F)F)C(=O)N(C)[C@@H](CC1CC1)C(=O)N1C[C@]2(C[C@H]1C#N)C(=O)N(COP(=O)(OC(C)(C)C)OC(C)(C)C)c1ccccc12 [Example 351] |  | < 100 |
| C[C@H](NC(=O)C(F)(F)C(F)(F)F)C(=O)N(C)[C@@H](CC1CC1)C(=O)N1C[C@]2(C[C@H]1C#N)C(=O)N(COP(=O)(O)O)c1ccccc12 [Example 352] | < 100 |  |
| CC(C)C[C@@H](C(=O)N1C[C@]2(C[C@H]1C#N)C(=O)Nc1ccccc12)n1cccc(NS(=O)(=O)C2CC2)c1=O [Example 353] | < 100 |  |
| CC(C)C[C@@H](C(=O)N1C[C@]2(C[C@H]1C#N)C(=O)Nc1ccccc12)n1cccc(NC(=O)OC(C)(C)C)c1=O [Example 354] | 100 to 1000 |  |
| CC(C)C[C@@H](C(=O)N1C[C@]2(C[C@H]1C#N)C(=O)Nc1ccccc12)n1cccc(NC(=O)C2CC2)c1=O [Example 357] | < 100 |  |
| CC(=O)Nc1cccn([C@H](CC(C)C)C(=O)N2C[C@]3(C[C@H]2C#N)C(=O)Nc2ccccc23)c1=O [Example 358] | < 100 |  |
| CC(C)C[C@H](C(=O)N1C[C@]2(C[C@H]1C#N)C(=O)Nc1ccccc12)n1cccc(NS(=O)(=O)C2CC2)c1=O [Example 359] | 100 to 1000 |  |
| CC(C)C[C@H](C(=O)N1C[C@]2(C[C@H]1C#N)C(=O)Nc1ccccc12)n1cccc(NC(=O)OC(C)(C)C)c1=O [Example 360] | < 100 |  |
| CCN(C(=O)[C@H](C)NC(=O)c1ccc(OC(F)(F)F)cc1)[C@@H](CC(C)C)C(=O)N1C[C@]2(C[C@H]1C#N)C(=O)Nc1ccccc12 [Example 361] | < 100 |  |
| CCN(C(=O)[C@H](C)NC(=O)c1c(F)cc(F)cc1F)[C@@H](CC(C)C)C(=O)N1C[C@]2(C[C@H]1C#N)C(=O)Nc1ccccc12 [Example 362] | < 100 |  |
| CCN(C(=O)[C@H](C)NC(=O)c1ccc(C(C)(C)C)cc1)[C@@H](CC(C)C)C(=O)N1C[C@]2(C[C@H]1C#N)C(=O)Nc1ccccc12 [Example 363] | < 100 |  |
| CCN(C(=O)[C@H](C)NC(=O)c1ccc(Cl)c(Cl)c1)[C@@H](CC(C)C)C(=O)N1C[C@]2(C[C@H]1C#N)C(=O)Nc1ccccc12 [Example 364] | < 100 |  |
| CCN(C(=O)[C@H](C)NC(=O)C(F)(F)F)[C@@H](CC(C)C)C(=O)N1C[C@]2(C[C@H]1C#N)C(=O)Nc1ccccc12 [Example 365] | < 100 |  |
| CCN(C(=O)[C@H](C)NC(=O)C(F)(F)C(F)(F)F)[C@@H](CC(C)C)C(=O)N1C[C@]2(C[C@H]1C#N)C(=O)Nc1ccccc12 [Example 366] | < 100 |  |
| CCN(C(=O)C(C)NC(=O)C12CC(C)(C1)C2)C(CC(C)C)C(=O)N1CC2(CC1C#N)C(=O)Nc1ccccc12 (stereo not shown) [Example 367] | < 100 |  |
| CCN(C(=O)[C@H](C)NC(=O)C12CC3CC(CC(C3)C1)C2)[C@@H](CC(C)C)C(=O)N1C[C@]2(C[C@H]1C#N)C(=O)Nc1ccccc12 [Example 368] | < 100 |  |
| CCCC(F)(F)C(=O)N[C@@H](C)C(=O)N(CC)[C@@H](CC(C)C)C(=O)N1C[C@]2(C[C@H]1C#N)C(=O)Nc1ccccc12 [Example 369] | < 100 |  |
| CCN(C(=O)[C@H](C)NC(=O)N1CCCCC1)[C@@H](CC(C)C)C(=O)N1C[C@]2(C[C@H]1C#N)C(=O)Nc1ccccc12 [Example 370] | < 100 |  |
| CCN(C(=O)[C@H](C)NC(=O)OC(C)C)[C@@H](CC(C)C)C(=O)N1C[C@]2(C[C@H]1C#N)C(=O)Nc1ccccc12 [Example 371] | < 100 |  |
| CCN(C(=O)[C@H](C)NC(=O)c1ccc(F)cc1)[C@@H](CC(C)C)C(=O)N1C[C@]2(C[C@H]1C#N)C(=O)Nc1ccccc12 [Example 372] | < 100 |  |
